According to patent publication US12024543B2, “Micropeptides and use of same for modulating gene expression” (UNIVERSITE PAUL SABATIER TOULOUSE III, priority 2013, dated 2024):

How the values were obtained:
[1] = test system: AtmiR319a; test: Expression of AtmiPEP319a2 (AtmiORF319a) in tobacco expressing AtmiR319a; format: in vivo, Nicotiana benthamiana; settings: overexpression of AtmiORF319a
Method: At present, AtmiPEP165a and AtmiPEP319a2, identified in Arabidopsis thaliana, have already been characterized.
(§1) The total RNA was extracted from roots of M. truncatula or from tobacco leaves using the extraction kit RNeasy Plant Mini Kit (Qiagen). The reverse transcription was performed using the reverse transcriptase SuperScript II (Invitrogen) starting from 500 ng of total RNA. Three repetitions (n=3) were carried out, each with two technical repetitions. Each experiment was repeated from two to three times. The amplifications by qPCR were carried out using a LightCycler 480 System thermocycler (Roche Diagnostics) by the method described in Lauressergues et al. (Plant J., 72(3): 512-22, 2012).
For the miPEPs 165a and 319a, the corresponding miORFs were cloned into pBIN19 by the method described in Combier et al. (Genes & Dev, 22: 1549-1559, 2008).
(§2) The composite plants having roots transformed with Agrobacterium rhizogenes were obtained by the method described in Boisson-Dernier et al. (Mol Plant-Microbe Interact, 18: 1269-1276, 2005). The transformed roots were verified and selected by observations of DsRED with a binocular fluorescence magnifier. The control roots correspond to roots transformed with A. rhizogenes not containing the pPEX-DsRED vector. Transformation of the tobacco leaves was carried out by the method described in Combier et al. (Genes & Dev, 22: 1549-1559, 2008).

[2] = test system: pre-MtmiR169, pre-MtmiR169a, pre-MtmiR171a, pre-MtmiR171h, pre-MtmiR393a, pre-MtmiR393b, pre-MtmiR396a, pre-MtmiR396b; test: Specificity of miPEP171b1: expression of different microRNA precursors of M. truncatula; format: in vivo, Medicago truncatula; settings: overexpression of MtmiPEP171b1 or treatment with MtmiPEP171b1 (0.1 μM), ratio to control roots
Method: The expression of different microRNA precursors of Medicago truncatula (MtmiR171b SEQ ID NO: 319, MtmiR169 SEQ ID NO: 367, MtmiR169a SEQ ID NO: 368, MtmiR171a SEQ ID NO: 369, MtmiR171h SEQ ID NO: 370, MtmiR393a SEQ ID NO: 371, MtmiR393b SEQ ID NO: 372, MtmiR396a SEQ ID NO: 373 and MtmiR396b SEQ ID NO: 374) was determined and compared between control plants and plants in which MtmiORF171b encoding MtmiPEP171b1 was overexpressed (FIG. 5A), or between control plants and plants grown on culture medium containing MtmiPEP171b1 (FIG. 5B).
as §1

[3] = test system: MtmiR171b; test: Overexpression of MtmiPEP171b1 (MtmiORF171b) in M. truncatula roots, relative expression by qRT-PCR; format: in vivo, Medicago truncatula; settings: vs control plant
Method: as §1
(§3) The DNA fragments of interest were amplified with Pfu polymerase (Promega). The DNA fragments were cloned using the XhoI and NotI enzymes into a pPEX-DsRED plasmid for an overexpression under the control of the constitutive strong promoter 35S, and using the KpnI-NcoI enzymes into a pPEX GUS plasmid for the reporter genes, by the method described in Combier et al. (Genes & Dev, 22: 1549-1559, 2008).
as §2

[4] = test system: MtmiR171b; test: Regulation of MtmiR171b by MtmiPEP171b1 in transformed tobacco leaves; format: in vivo, Nicotiana benthamiana; settings: for relative expression of pre-MtmiR171b (expression of MtmiR171b): co-expression of MtmiPEP171b1 (MtmiORF171b ATG vs ATT), FIG. 7
Method: In order to determine whether the mechanism of regulation of the microRNAs is conserved in other plant species, the regulation of MtmiR171b by MtmiPEP171b1 was tested in a different cellular model. For this, MtmiR171b and MtmiPEP171b1 were introduced into tobacco leaves.
The accumulation of MtmiR171b was measured in tobacco leaves transformed in order to express MtmiR171b of Medicago truncatula starting from wild-type pri-miRNA capable of producing MtmiPEP171b1, or starting from a mutated version of pri-miRNA incapable of producing MtmiPEP171b1 (in which the start codon ATG of MtmiORF171b has been replaced with ATT) (FIG. 6 and FIG. 20).
The accumulation of pre-MtmiR171b was measured in tobacco leaves transformed in order to express MtmiR171b of Medicago truncatula alone (control), or additionally expressing the wild-type MtmiORF171b of Medicago truncatula (35SmiPEP171b1 ATG), or a mutated version of MtmiORF171b in which the start codon ATG has been replaced with ATT (35SmiPEP171b1 ATT) (FIG. 7 and FIG. 21).
The leaves were watered by spraying with the peptides using peptide solutions at different concentrations (0.01, 0.1, 1 μM), firstly 12h before sampling and then a second time 30 min before sampling.
as §1, §3, §2

[5] = test system: Medicago truncatula; test: Number of lateral roots in M. truncatula; format: in vivo; settings: vs control plant
Method: The surface of seeds of M. truncatula was sterilized and they were left to germinate on agar plates for 5 days at 4° C. in the dark. […] The lateral roots were counted every day. […] The mean values of the relative expression of the genes or of the production of lateral roots were analysed using the Student test or the Kruskal-Wallis test. The error bars represent the SEM (Standard Error of the Mean). The asterisks indicate a significant difference (p<0.05).

[6] = test system: MtmiR171b; test: Watering of M. truncatula plants with synthetic MtmiPEP171b1, relative expression by qRT-PCR; format: in vivo, Medicago truncatula; settings: watering once daily for 5 days with MtmiPEP171b1 at 0.01, 0.1 or 1 μM
Method: The surface of seeds of M. truncatula was sterilized and they were left to germinate on agar plates for 5 days at 4° C. in the dark. The young shoots were then grown on 12-cm square plates filled with Fahraeus medium without nitrogen and containing 7.5 μM phosphate (Lauressergues et al., Plant J., 72(3): 512-22, 2012). The lateral roots were counted every day. In pots, the plants were watered every other day with modified Long Ashton medium with low phosphorus content (Balzergue et al., Journal of Experimental Botany, (62)1049-1060, 2011).
The peptides were synthesized by Eurogentec or Smartox-Biotech. MtmiPEP171b1 was resuspended in a solution of 40% water/50% acetonitrile/10% acetic acid (v/v/v), and the other peptides were resuspended in water.
The RNA was extracted using the reagent Tri-Reagent (MRC) according to the manufacturer's instructions, except for precipitation of the RNA, which was carried out with 3 volumes of ethanol. The reverse transcription of the RNA was carried out using the specific stem-loop primer RTprimer171b in combination with hexamers for performing the reverse transcription of RNA of high molecular weight.
In brief, 1 μg of RNA was added to the stem-loop primer MIR171b (0.2 μM), the hexamer (500 ng), the buffer RT (1×), the enzyme SuperScript Reverse transcriptase (SSIII) (one unit), the dNTPs (0.2 mM each), DTT (0.8 mM) in a final reaction mixture of 25 μl. In order to carry out the reverse transcription, a reaction of pulsed reverse transcription was performed (40 repetitions of the following cycle: 16° C. for 2 minutes, 42° C. for one minute and 50° C. for one second, followed by a final inactivation of the reverse transcription at 85° C. for 5 minutes).
as §1
The mean values of the relative expression of the genes or of the production of lateral roots were analysed using the Student test or the Kruskal-Wallis test. The error bars represent the SEM (Standard Error of the Mean). The asterisks indicate a significant difference (p<0.05).

[7] = test system: AtmiR164a; test: Northern blot of miR164a in A. thaliana roots treated with synthetic AtmiPEP164a; format: in vivo, Arabidopsis thaliana; settings: 0.1 μM synthetic miPEP164a in water vs water
Method: Northern blot analysis was carried out according to the protocol described in Lauressergues et al. Plant J, 72(3): 512-22, 2012.
The biological samples were homogenized in a buffer containing 0.1 M of NaCl, 2% of SDS, 50 mM of Tris-HCl (pH 9), 10 mM of EDTA (pH 8) and 20 mM of mercaptoethanol, and the RNA was extracted twice with a phenol/chloroform mixture and was precipitated with ethanol.
The RNA was loaded on PAGE 15% gel and transferred to a nylon membrane (HybondNX, Amersham). RNA was hybridized with a radioactive oligonucleotide probe labelled at its end, in order to detect the RNA U6 or for miR164a.
The hybridizations were carried out at 55° C. The hybridization signals were quantified using a phosphorimager (Fuji) and normalized with the signal of the specific probe of RNA U6.

[8] = test system: Arabidopsis thaliana; test: Growth of Arabidopsis thaliana plants watered with synthetic miPEP; format: in vivo; settings: A. thaliana; watered with 0.1 μM synthetic peptide, 3 weeks of growth, vs water
Method: The photographs show two plants (top views and side views) after 3 weeks of growth: a control plant watered with water (A), and a plant watered with a composition of 0.1 μM of synthetic peptide corresponding to AtmiPEP164a (B).
The photographs show two plants (top views and side views) after 3 weeks of growth: a control plant watered with water (A), and a plant watered with a composition of 0.1 μM of synthetic peptide corresponding to AtmiPEP319a1 (B).

[9] = test system: DmmiR8; test: Transfected Drosophila melanogaster S2 cells, relative expression of Pre-miR8; format: cell-based
Method: S2 cells are cultured in a T75 flask in 12 mL of Schneider's medium (GIBCO), containing 1% of penicillin 100 U/mL and […] (Sigma) and 10% of decomplemented foetal calf serum (30 min at 56° C.). The transient transfections are carried out using the FuGENE® HD transfection kit (Roche), according to the recommendations. Conventionally, 1.5 million S2 cells, previously seeded in 6-well plates (3 ml of medium per well), are transfected with 250 ng of total plasmid DNA. The DNA is brought into contact with the Fugene (3 μl) in 100 μl of OPTIMEM (GIBCO). After 20 minutes, the transfection reagent formed is brought into contact with the cells in the culture medium. The RNA of the cells is extracted 66 h after transfection.

[10] = tobacco expressing MtmiR171b, overexpression of MtmiPEP171b1 or 0.1 μM miPEP171b1, FIG. 9
[11] = overexpression of MtmiPEP171b1 (MtmiORF171b)

MFQTLYLFIYIHTNILLLS (listed as Arabidopsis thaliana) [AtmiPEP319a2]
accumulation of AtmiR319a [1]: increase

MLLHRLSKFCKIERDIVYIS (listed as Medicago truncatula) [MtmiPEP171b1]
effect on the accumulation of the other miRNAs (precursors of MtmiR169, 169a, 171a, 171h, 393a, 393b, 396a, 396b) [2]: not on the other miRNAs | accumulation of MtmiR171b [3]: increase | expression of the HAM1 gene [3]: decrease | expression of the HAM2 gene [3]: decrease | relative expression of pre-MtmiR171b (expression of MtmiR171b) ([4]; tobacco expressing MtmiR171b): increases | accumulation of MtmiR171b ([4]; tobacco expressing MtmiR171b, MtmiPEP171b1 sprayed (0.1 μM) twice, 12 h and 30 min before sampling): increase | accumulation of MtmiR171b [4, 10]: increase | accumulation of pre-MtmiR171b [4, 10]: increase | expression of MtmiR171b (pre-MtmiR171b) with MtmiPEP171b1 with or without protein tags ([4]; tobacco leaves, tags His, HA or GFP): increases the expression of MtmiR171b, and this effect is independent of the presence of tags | relative expression of MtmiR171b ([4]; tobacco, vector expressing mtmiPEP171b vs empty vector, ATT mutant or degenerate ORF, FIG. 21): increases | accumulation of MtmiR171b in the absence of translation of MtmiPEP171b1 ([4]; tobacco, pri-MtmiR171b with ATG of miORF171b replaced with ATT (or miORF deleted) vs wild-type pri-MtmiR171b): marked decrease | number of lateral roots [5, 11]: reduction | number of lateral roots ([5]; watering with MtmiPEP171b1 at 0.1 μM once daily for 5 days): reduction | accumulation of MtmiR171b ([6]; vs control plant): increase | expression of the HAM1 gene ([6]; vs control plant): decrease | expression of the HAM2 gene ([6]; vs control plant): decrease | accumulation of pre-MtmiR171b ([6]; vs control plants): increase

MPSWHGMVLLPYVKHTHASTHTHTHNIYGCACELVFH (listed as Arabidopsis thaliana) [AtmiPEP164a1]
accumulation of miR164a (Northern blot) [7]: increase | plant growth [8]: increases plant growth significantly

B1: ATGCTTCTTCATAGGCTCTCCAAATTTTGCAAAATTGAAAGAGACATAGTATATATATCTTAG (nucleic acid, listed as Medicago truncatula)
DNA: ATGCTTCTTCATAGGCTCTCCAAATTTTGCAAAATTGAAAGAGACATAGTATATATATCTTAG
modifications: listed as DNA, chemistry not fully specified
accumulation of MtmiR171b [3]: increase | expression of the HAM1 gene [3]: reduction | expression of the HAM2 gene [3]: reduction | relative expression of pre-MtmiR171b (expression of MtmiR171b) ([4]; tobacco expressing MtmiR171b): increase | number of lateral roots [5, 11]: reduction

B2: MEPGFVFVLFPTHLSTQHTQREKSILVMGLNLQSAKQSDKQNSKERKKNTQINSQRIPYRQGGQCSKVLSP (peptide)
chain: MEPGFVFVLFPTHLSTQHTQREKSILVMGLNLQSAKQSDKQNSKERKKNTQINSQRIPYRQGGQCSKVLSP
modifications: Drosophila melanogaster
expression of DmmiR8 (relative expression of Pre-miR8) ([9]; D. melanogaster cells overexpressing DmmiPEP8 vs miPEP8 with mutated start codons): increases | expression of DmmiR8 (relative expression of Pre-miR8) ([9]; D. melanogaster cells overexpressing wild-type DmmiR8 vs DmmiR8 with mutated miPEP8 start codons): increases
